Measurements taken from the NIST ThermoML archive (doi:10.1016/j.jct.2015.07.042).
± gives the expanded uncertainty stated by the source.

Test: activity coefficient (dimensionless); of the first substance listed, at infinite dilution; xn = mol fraction of the nth substance listed
Details: 101 kPa, Liquid, Chromatography, x1 = 0

| SMILES | activity coefficient (358.15 K) | activity coefficient (368.15 K) | activity coefficient (378.15 K) | activity coefficient (388.15 K) | activity coefficient (398.15 K) | activity coefficient (408.15 K) | activity coefficient (418.15 K) | activity coefficient (428.15 K) |
| --- | --- | --- | --- | --- | --- | --- | --- | --- |
| Cc1ccccc1C [1,2-dimethylbenzene] + CCCCn1cc[n+](C)c1.CS(=O)(=O)[O-] | 7.64 ± 0.52 | 7.79 ± 0.53 | 7.99 ± 0.54 | 8.21 ± 0.56 | – | – | – | – |
| CC(C)O [propan-2-ol] + CCCCn1cc[n+](C)c1.[Cl-] | – | – | – | – | 0.542 ± 0.04 | 0.577 ± 0.041 | 0.619 ± 0.043 | 0.668 ± 0.045 |
| CCCC(=O)OC [methyl butanoate] + CCCCn1cc[n+](C)c1.COP(=O)([O-])OC | 4.93 ± 0.34 | 5.04 ± 0.34 | 5.17 ± 0.35 | 5.39 ± 0.37 | – | – | – | – |
| C#CCCC [1-pentyne] + CCCCn1cc[n+](C)c1.COP(=O)([O-])OC | 2.18 ± 0.15 | 2.32 ± 0.16 | 2.46 ± 0.17 | 2.6 ± 0.18 | – | – | – | – |
| CC1CCCCC1 [methylcyclohexane] + CCCCn1cc[n+](C)c1.[Cl-] | 84.2 ± 5.8 | 79 ± 5.4 | 73 ± 5 | 69.8 ± 4.8 | – | – | – | – |
| Cc1ccccc1C [1,2-dimethylbenzene] + CCCCn1cc[n+](C)c1.COP(=O)([O-])OC | 5.54 ± 0.38 | 5.7 ± 0.39 | 5.79 ± 0.39 | 6.03 ± 0.41 | – | – | – | – |
| COC(C)(C)C [2-methoxy-2-methylpropane] + CCCCn1cc[n+](C)c1.CS(=O)(=O)[O-] | 17 ± 1.2 | 17.4 ± 1.2 | 17.9 ± 1.2 | 18.6 ± 1.3 | – | – | – | – |
| Cc1cccc(C)c1 [1,3-dimethylbenzene] + CCCCn1cc[n+](C)c1.COP(=O)([O-])OC | 6.49 ± 0.44 | 6.6 ± 0.45 | 6.73 ± 0.46 | 7 ± 0.48 | – | – | – | – |
| C=CCCCC [hex-1-ene] + CCCCn1cc[n+](C)c1.CS(=O)(=O)[O-] | 39.7 ± 2.7 | 40 ± 2.7 | 40 ± 2.7 | 40.3 ± 2.8 | – | – | – | – |
| CCCCO [butan-1-ol] + CCCCn1cc[n+](C)c1.CS(=O)(=O)[O-] | – | – | – | – | 0.937 ± 0.059 | 0.984 ± 0.062 | 1.02 ± 0.064 | 1.07 ± 0.068 |
| CCOCC [diethyl ether] + CCCCn1cc[n+](C)c1.CS(=O)(=O)[O-] | 14.7 ± 1 | 14.9 ± 1 | 15 ± 1 | 15.3 ± 1.1 | – | – | – | – |
| CCOCC [diethyl ether] + CCCCn1cc[n+](C)c1.[Cl-] | 19.3 ± 1.3 | 18.9 ± 1.3 | 18.4 ± 1.3 | 18.4 ± 1.3 | – | – | – | – |
| CCO [ethanol] + CCCCn1cc[n+](C)c1.CS(=O)(=O)[O-] | – | – | – | – | 0.533 ± 0.039 | 0.553 ± 0.04 | 0.576 ± 0.041 | 0.599 ± 0.042 |
| C1CCCCCC1 [cycloheptane] + CCCCn1cc[n+](C)c1.COP(=O)([O-])OC | 15.1 ± 1 | 14.6 ± 1 | 14.3 ± 0.97 | 14 ± 0.96 | – | – | – | – |
| C=Cc1ccccc1 [styrene] + CCCCn1cc[n+](C)c1.CS(=O)(=O)[O-] | 3.79 ± 0.26 | 3.96 ± 0.27 | 4.2 ± 0.29 | 4.4 ± 0.3 | – | – | – | – |
| CCCC(C)=O [pentan-2-one] + CCCCn1cc[n+](C)c1.CS(=O)(=O)[O-] | 4.5 ± 0.31 | 4.59 ± 0.31 | 4.76 ± 0.32 | 4.91 ± 0.33 | – | – | – | – |
| CC#N [acetonitrile] + CCCCn1cc[n+](C)c1.COP(=O)([O-])OC | 0.88 ± 0.06 | 0.92 ± 0.06 | 0.95 ± 0.06 | 1 ± 0.06 | – | – | – | – |
| CC(C)CO [2-methyl-1-propanol] + CCCCn1cc[n+](C)c1.[Cl-] | – | – | – | – | 0.54 ± 0.039 | 0.576 ± 0.041 | 0.615 ± 0.043 | 0.665 ± 0.045 |
| COC(C)(C)C [2-methoxy-2-methylpropane] + CCCCn1cc[n+](C)c1.COP(=O)([O-])OC | 7.17 ± 0.49 | 7.35 ± 0.5 | 7.48 ± 0.51 | 7.66 ± 0.52 | – | – | – | – |
| CC(C)O [propan-2-ol] + CCCCn1cc[n+](C)c1.CS(=O)(=O)[O-] | – | – | – | – | 0.835 ± 0.054 | 0.878 ± 0.056 | 0.928 ± 0.059 | 0.976 ± 0.061 |
| C=CCCCCC [1-heptene] + CCCCn1cc[n+](C)c1.CS(=O)(=O)[O-] | 59.2 ± 4.1 | 58.9 ± 4 | 58.7 ± 4 | 58 ± 4 | – | – | – | – |
| C=CCCCCCCCC [1-decene] + CCCCn1cc[n+](C)c1.CS(=O)(=O)[O-] | 193 ± 13 | 187 ± 13 | 182 ± 12 | 179 ± 12 | – | – | – | – |
| C1CCOC1 [tetrahydrofuran] + CCCCn1cc[n+](C)c1.[Cl-] | 5.66 ± 0.39 | 5.67 ± 0.39 | 5.67 ± 0.39 | 5.7 ± 0.39 | – | – | – | – |
| CCC(=O)OC [methyl propanoate] + CCCCn1cc[n+](C)c1.CS(=O)(=O)[O-] | 4.43 ± 0.3 | 4.56 ± 0.31 | 4.68 ± 0.32 | 4.9 ± 0.33 | – | – | – | – |
